Test results as given in patent publication US20260199239A1, “IONIZABLE LIPIDS WITH MALONATE TAILS” (ModernaTX, Inc., priority 2022, published 2026).
Where “and” joins values, the source holds several entries; their conditions need not be identical. Equal entries are not always repeated.

Assays:
[1] = Osmolality of LNP formulation; format: physicochemical; settings: LNP formulation in 20 mM Tris 8% Sucrose storage buffer
From the text: (§1) LNPs comprising ionizable lipids described herein were formulated according to Table 2 and the following general procedure.

[2] = LNP particle size and polydispersity index (PDI); format: physicochemical; settings: LNP lipid:PEG-1:DSPC:Cholesterol 48:2:11:39, hEPO mRNA, 20 mM Tris 8% Sucrose pH 7.4
Protocol: A Zetasizer Nano ZS (Malvern Instruments Ltd, Malvern, Worcestershire, UK) can be used to determine the particle size, the polydispersity index (PDI) and the zeta potential of the nanoparticle compositions in 1×PBS in determining particle size and 15 mM PBS in determining zeta potential.
LNPs may be characterized by a variety of methods. For example, microscopy (e.g., transmission electron microscopy or scanning electron microscopy) may be used to examine the morphology and size distribution of a nanoparticle composition. Dynamic light scattering or potentiometry (e.g., potentiometric titrations) may be used to measure zeta potentials. Dynamic light scattering may also be utilized to determine particle sizes. Instruments such as the Zetasizer Nano ZS (Malvern Instruments Ltd, Malvern, Worcestershire, UK) may also be used to measure multiple characteristics of a nanoparticle composition, such as particle size, polydispersity index, and zeta potential.
as §1
(§2) General procedure for one-pot LNP formation: Lipid stock solutions in ethanol are mixed with mRNA in 25 mM acetate solution at a 3:1 ratio in a microfluidic mixer. The resulting LNPs, which are at approximately pH 5 and 25% EtOH, are buffer exchanged by dialysis into the storage buffer. The LNP solutions are then concentrated by Amicon® and purified by a 0.2 uM sterile filter.

pH of LNP formulation = format: physicochemical; settings: LNP formulation in 20 mM Tris 8% Sucrose storage buffer
From the text: as §1

[3] = Endotoxin content of LNP formulation; settings: LNP lipid:PEG-1:DSPC:Cholesterol 48:2:11:39, hEPO mRNA
From the text: as §1

[4] = mRNA encapsulation by the LNP (% EE, total mRNA in TX); format: physicochemical; settings: LNP lipid:PEG-1:DSPC:Cholesterol 48:2:11:39, hEPO mRNA
Protocol: For nanoparticle compositions including an RNA, a QUANT-IT™ RIBOGREEN® RNA assay (Invitrogen Corporation Carlsbad, CA) can be used to evaluate the encapsulation of an RNA by the nanoparticle composition. The samples are diluted to a concentration of approximately 5 μg/mL in a TE buffer solution (10 mM Tris-HCl, 1 mM EDTA, pH 7.5). 50 μL of the diluted samples are transferred to a polystyrene 96 well plate and either 50 μL of TE buffer or 50 μL of a 2% Triton X-100 solution is added to the wells. The plate is incubated at a temperature of 37° C. for 15 minutes. The RIBOGREEN® reagent is diluted 1:100 in TE buffer, and 100 μL of this solution is added to each well. The fluorescence intensity can be measured using a fluorescence plate reader (Wallac Victor 1420 Multilablel Counter; Perkin Elmer, Waltham, MA) at an excitation wavelength of, for example, about 480 nm and an emission wavelength of, for example, about 520 nm. The fluorescence values of the reagent blank are subtracted from that of each of the samples and the percentage of free RNA is determined by dividing the fluorescence intensity of the intact sample (without addition of Triton X-100) by the fluorescence value of the disrupted sample (caused by the addition of Triton X-100).
The efficiency of encapsulation of a therapeutic and/or prophylactic agent describes the amount of therapeutic and/or prophylactic agent that is encapsulated or otherwise associated with an LNP after preparation, relative to the initial amount provided. The encapsulation efficiency is desired to be high (e.g., close to 100%). The encapsulation efficiency may be measured, for example, by comparing the amount of therapeutic and/or prophylactic agent in a solution containing a loaded LNP before and after breaking up the loaded LNP with one or more organic solvents or detergents. Fluorescence may be used to measure the amount of free therapeutic and/or prophylactic agent (e.g., RNA) in a solution. For the loaded LNPs formulated with lipids of the disclosure, the encapsulation efficiency of a therapeutic and/or prophylactic agent is at least 50%, for example 50%, 55%, 60%, 65%, 70%, 75%, 80%, 85%, 90%, 91%, 92%, 93%, 94%, 95%, 96%, 97%, 98%, 99%, or 100%. In some embodiments, the encapsulation efficiency is at least 80%. In some embodiments, the encapsulation efficiency is at least 90%. In some embodiments, the encapsulation efficiency of the therapeutic and/or prophylactic agent is between 80% and 100%.
as §1, §2

hEPO protein expression = hEPO protein expression in vivo after systemic administration of LNPs
Protocol: In order to monitor how effectively various nanoparticle compositions deliver therapeutic and/or prophylactic agents to targeted cells, different nanoparticle compositions including a particular therapeutic and/or prophylactic agent (for example, a modified or naturally occurring RNA such as an mRNA) are prepared and administered to animal populations. Animals (e.g., mice, rats, or non-human primates) are intravenously, intramuscularly, intraarterially, or intratumorally administered a single dose including a nanoparticle composition comprising a lipid of the disclosure and an mRNA expressing a protein, e.g., human erythropoietin (hEPO) or luciferase. A control composition including PBS may also be employed.
Upon administration of nanoparticle compositions to an animal, dose delivery profiles, dose responses, and toxicity of particular formulations and doses thereof can be measured by enzyme-linked immunosorbent assays (ELISA), bioluminescent imaging, or other methods. For nanoparticle compositions including mRNA, time courses of protein expression can also be evaluated. Samples collected from the animals for evaluation may include blood, sera, and tissue (for example, muscle tissue from the site of an intramuscular injection and internal tissue); sample collection may involve sacrifice of the animals.
ELISA test kits may provide hEPO concentrations in milli International Units per mL (mIU/mL), e.g., per mL of tested serum. Typically, the EPO concentration of unknown sample is calculated from a calibration curve. Standards (used for the calibration curve) are calibrated according to the 2. IRP WHO preparation. In some embodiments, mIU/mL corresponds to […]. Nanoparticle compositions including mRNA are useful in the evaluation of the efficacy and usefulness of various formulations for the delivery of therapeutic and/or prophylactic agents. Higher levels of protein expression induced by administration of a composition including an mRNA will be indicative of higher mRNA translation and/or nanoparticle composition mRNA delivery efficiencies. As the non-RNA components are not thought to affect translational machineries themselves, a higher level of protein expression is likely indicative of a higher efficiency of delivery of the therapeutic and/or prophylactic agent by a given nanoparticle composition relative to other nanoparticle compositions or the absence thereof.
In some embodiments, an in vivo expression assay may be used to assess potency of expression of lipids of the disclosure. In some embodiments, the protein expression (hEPO) may be measured in mice following administration of a nanoparticle comprising a lipid of the disclosure (e.g., a loaded LNP). In some embodiments, lipid nanoparticles of the instant disclosure may be intravenously administered to mice (e.g., CD-1 mice).
In some embodiments, the concentration of hEPO in serum may be tested after administration (e.g., about six hours after injection). In some embodiments, residual levels of the lipids of the disclosure in organs or tissue of the subject after administration (e.g., 6 h, 12 h, 18 h, 24 h, 36h, or 48 h after administration) are measured. In some embodiments, the residual levels of the lipids of the disclosure in the liver are measured. In some embodiments, an in vitro expression assay may be used to assess nanoparticles of the disclosure. In some embodiments, cells (e.g., HeLa) may be plated in an imaging plate (e.g., poly-D-lysine coated) and cultured in serum (e.g., human serum, mouse serum, cynomolgus monkey serum or fetal bovine serum). In some embodiments, lipid nanoparticles of the disclosure comprising an mRNA expressing fluorescent protein (e.g., green fluorescent protein (GFP)) and a fluorescent lipid (e.g., rhodamine-DOPE) may be added to the plate and the plate imaged for uptake and expression. In some embodiments, expression may be evaluated by measuring fluorescence (e.g., from GFP). […]

[5] = Table 3A groups 1-8, ratio to L5 LNP
[6] = Table 3B groups 1A-8A, ratio to L5 LNP

SMILES | Osmolality (mOsm/kg) [1] | PDI [2] | Size (nm) [2] | pH (pH of LNP formulation) | Endotoxin (EU/mL) [3] | % EE [4] | 6 hr protein expression ratio cf. L5 (hEPO protein expression; [5]) | 6 hr protein expression ratio cf. L5 (hEPO protein expression; [6]) | 24 hr protein expression ratio cf. L5 (hEPO protein expression; [5]) | 24 hr protein expression ratio cf. L5 (hEPO protein expression; [6])
CCCCCCCCC(CC)OC(=O)CCCCCCCN(CCCCCCCC(=O)OC(CCCCCCCC)CCCCCCCC)CCCNc1c(NC)c(=O)c1=O (stereo not drawn) [Compound L5, reference compound] | 313 mOsm/kg and 320 mOsm/kg | 0.117 and 0.119 | 60.4 nm and 59.9 nm | 7.456 | 2 EU/mL | 95.2% and 96.1% | 1.0 | 1.00 | 1.0 | 1.00
CCCCCCCCC(CCCCCCCC)OC(=O)CCCCCCCN(CCCCCCC(C(=O)OCCCCCC)C(=O)OCCCCCC)CCCNC(=O)C1CC1 [Compound M6, Dihexyl 2-(6-((3-(cyclopropanecarboxamido)propyl)(8-(heptadecan-9-yloxy)-8-oxooctyl)amino)hexyl)malonate] | 317 mOsm/kg | 0.418 | 104.9 nm | 7.450 | <2 EU/mL | 67.8% | – | 0.82 | – | 0.81
